Measurements as given in PubChem BioAssay (NCI).
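How tested: cells in 96-well plates exposed to compound for 48 hours at five concentrations. At the GI50, growth is halved. TGI is the concentration that stops growth completely.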

How the values were obtained:
Experiment in all cases: NCI tumour cell line growth inhibition, 48 h
NCI-H226 lung = tested on: NCI-H226 lung
786-0 renal = tested on: 786-0 renal
UACC-257 melanoma = tested on: UACC-257 melanoma
M14 melanoma = tested on: M14 melanoma
OVCAR-4 ovarian = tested on: OVCAR-4 ovarian
SF-268 CNS = tested on: SF-268 CNS
KM12 colon = tested on: KM12 colon
CCRF-CEM leukemia = tested on: CCRF-CEM leukemia
NCI-H522 lung = tested on: NCI-H522 lung
PC-3 prostate = tested on: PC-3 prostate

| Structure (SMILES) | TGI (NCI-H226 lung) | TGI (786-0 renal) | TGI (UACC-257 melanoma) | TGI (M14 melanoma) | TGI (OVCAR-4 ovarian) | TGI (SF-268 CNS) | TGI (KM12 colon) | TGI (CCRF-CEM leukemia) | TGI (NCI-H522 lung) | TGI (PC-3 prostate) | GI50 (NCI-H226 lung) | GI50 (786-0 renal) | GI50 (UACC-257 melanoma) | GI50 (M14 melanoma) | GI50 (OVCAR-4 ovarian) | GI50 (SF-268 CNS) | GI50 (KM12 colon) | GI50 (CCRF-CEM leukemia) | GI50 (PC-3 prostate) |
| --- | --- | --- | --- | --- | --- | --- | --- | --- | --- | --- | --- | --- | --- | --- | --- | --- | --- | --- | --- |
| CCOC(=O)C(=O)C1C(=O)Nc2ccccc21 (stereo not given) | > 100 µM | > 100 µM | > 100 µM | > 100 µM | > 100 µM | > 100 µM | > 100 µM | > 100 µM |  |  |  |  |  |  |  |  |  |  |  |
| Cc1cc(=O)c2cc(N=Cc3ccc([N+](=O)[O-])o3)ccc2o1 | > 100 µM | > 100 µM | > 100 µM | > 100 µM | > 100 µM | > 100 µM | > 100 µM | > 100 µM | > 100 µM |  |  |  |  |  |  |  |  |  |  |
| Cn1cc(NC(=O)c2cc(NC(=O)Nc3cc(C(=O)Nc4cc(C(=O)NCCC(=N)N)n(C)c4)n(C)c3)cn2C)cc1C(=O)NCCC(=N)N |  | 38.1 µM | 45.5 µM | 57.2 µM | > 100 µM | > 100 µM | 36.8 µM | 77 µM |  |  |  |  |  |  |  |  |  |  |  |
| O=c1[nH]c(=O)n(C2CC(O)C(CO)O2)cc1C(OCC(F)(F)F)OCC(F)(F)F (stereo not given) |  | > 100 µM | > 100 µM | > 100 µM | > 100 µM | > 100 µM | > 100 µM | > 100 µM | > 100 µM |  |  |  |  |  |  |  |  |  |  |
| CC1=C(SCc2ccccc2)C(=O)c2ccccc2C1=O |  | 30.9 µM | 31.4 µM |  | 27.2 µM | 31.3 µM | 35.7 µM |  |  | 37.3 µM |  |  |  |  |  |  |  |  |  |
| CC(=O)O[C@H]1CC[C@@]2(C)C(CC[C@]3(C)C2CC[C@]2(C)Oc4c(C)cc(O)cc4C[C@@H]23)C1(C)C (stereo not given in full) | 35.3 µM | 4.44 µM | 22.8 µM | 27.5 µM | 22.2 µM | 21.4 µM | 22.6 µM | 16.8 µM | 21.5 µM |  |  |  |  |  |  |  |  |  |  |
| COc1ccc(C(O)c2cc3c(N)c(C(=O)Nc4cccc(Cl)c4C)sc3nc2C)cc1 (stereo not given) | 3.15 µM | 1.53 µM | 2.02 µM | 1.78 µM | 2 µM | 1.68 µM | 1.68 µM | 1.93 µM |  | 1.63 µM | 1.04 µM | 0.786 µM | 1 µM | 0.872 µM | 0.782 µM | 0.808 µM | 0.865 µM | 0.733 µM | 0.768 µM |
| CC1=C(C)CC2(SC1)C(=O)c1ccccc1C2=O | > 100 µM | > 100 µM | > 100 µM | > 100 µM | > 100 µM | > 100 µM | > 100 µM | > 100 µM | > 100 µM |  |  |  |  |  |  |  |  |  |  |
| COc1ccccc1/C=C1\CCC(CNc2ccc(Cl)cc2)C1=O (stereo not given) | 28.3 µM | 22.2 µM | 26.7 µM | 9.72 µM | 28.2 µM | 24.2 µM | 10 µM | 19.7 µM | 4.45 µM |  |  |  |  |  |  |  |  |  |  |
| O=C1CCC2CCc3cccc4oc1c2c34 (stereo not given) |  | > 100 µM | > 100 µM | > 100 µM | > 100 µM |  |  | > 100 µM |  |  |  |  |  |  |  |  |  |  |  |
| CCN(CC)CC(=O)/C=C/c1ccc(C)cc1 | 53.8 µM | 34.4 µM | 46 µM | 32.2 µM | 29.3 µM | 54.8 µM | 39 µM |  |  |  |  |  |  |  |  |  |  |  |  |
| CNS(=O)(=O)NN(C)S(=O)(=O)c1ccc(Cl)cc1 | > 100 µM | > 100 µM | > 100 µM | > 100 µM | > 100 µM | > 100 µM | > 100 µM | > 100 µM | > 100 µM |  |  |  |  |  |  |  |  |  |  |
| ON(CCc1ccncc1)Cc1ccccc1 | > 100 µM | > 100 µM |  | > 100 µM | > 100 µM | > 100 µM | > 100 µM |  | > 100 µM |  |  |  |  |  |  |  |  |  |  |
| COc1ccc(S(=O)(=O)N/N=C/CN2C(=O)c3ccccc3C2=O)cc1OC |  | > 100 µM | > 100 µM | > 100 µM | > 100 µM | > 100 µM | > 100 µM | > 100 µM | > 100 µM |  |  |  |  |  |  |  |  |  |  |
| Cn1ccnc1C(c1nccn1C)C(C)(C)[N+](=O)[O-] |  | > 100 µM | > 100 µM | > 100 µM | > 100 µM | > 100 µM | > 100 µM | > 100 µM | > 100 µM |  |  |  |  |  |  |  |  |  |  |
| O=C1O[C@H](C(Cl)(Cl)Cl)N2CCCC12 (stereo not given in full) | > 100 µM | > 100 µM | > 100 µM | > 100 µM | > 100 µM | > 100 µM | > 100 µM | > 100 µM | > 100 µM |  |  |  |  |  |  |  |  |  |  |
| N=S(=O)(c1ccccc1)c1ccccc1[N+](=O)[O-] (stereo not given) | > 100 µM | > 100 µM | > 100 µM | > 100 µM | > 100 µM |  | > 100 µM | > 100 µM | > 100 µM |  |  |  |  |  |  |  |  |  |  |
| CC1CCc2c(sc3ncnc(N/N=C/c4ccc(Cl)c(Cl)c4)c23)C1 (stereo not given) | 49.4 µM | 55.8 µM | > 100 µM | 30.2 µM |  | > 100 µM |  | 41.6 µM | 21 µM |  |  |  |  |  |  |  |  |  |  |
| C=CCC12CCC(=O)C=C1CCC1(C2)OCCO1 (stereo not given) | > 100 µM | > 100 µM | > 100 µM | > 100 µM | > 100 µM | > 100 µM | > 100 µM | > 100 µM | > 100 µM |  |  |  |  |  |  |  |  |  |  |
